Activity calls are given as the source filed them. No cut-off for these calls is given here.
Tests used:
[1] = (§1) Cytotoxicity against human PANC1 cells assessed as cell viability after 24 hrs by WST8 assay; format: functional, PANC-1
PANC-1 [2] = test: as §1; format: functional
PANC-1 [3] = test: Induction of apoptosis in human PANC1 cells at 50 uM after 24 hrs by Annexin V/propidium iodide staining-based fluorescence microscopy; format: functional, cell-based
PANC-1 [4] = test: Induction of apoptosis in human PANC1 cells grown in glucose/amino acid deprived medium after 24 hrs by phase contrast microscopy; format: functional, cell-based
PANC-1 [5] = test: Induction of apoptosis in human PANC1 cells at 50 uM after 24 hrs by phase contrast microscopy; format: functional, cell-based
PANC-1 [6] = test: Induction of apoptosis in human PANC1 cells grown in glucose deprived medium after 24 hrs by phase contrast microscopy; format: functional, cell-based

Structure (SMILES)	PC50 [1] [µM]	Activity (PANC-1 [2])	Activity (PANC-1 [3])	Activity (PANC-1 [4])	Activity (PANC-1 [5])	Activity (PANC-1 [6])
COc1c(C(=O)c2ccccc2)ccc2c1OCO2	>100	Dose-dependent effect	–	–	–	–
COc1c(O)ccc(C(=O)c2ccccc2)c1OC	81.3	Dose-dependent effect	–	–	–	–
COc1cc(OC)c2c(=O)c3ccc(O)c(OC)c3oc2c1	93.1	Dose-dependent effect	–	–	–	–
COc1c(O)cc2oc3ccccc3c(=O)c2c1O	81.2	Dose-dependent effect	–	–	–	–
COc1cc(C[C@H]2C(=O)OC[C@@H]2Cc2ccc(OC)c(OC)c2)ccc1O [ARCTIGENIN]	0.5	–	–	–	–	–
COc1cc(O)c2c(=O)c3c(OC)c(OC)c(OC)c(O)c3oc2c1OC	>100	Dose-dependent effect	–	–	–	–
COc1cc(O)c2c(=O)c3cc(O)ccc3oc2c1	>100	Dose-dependent effect	–	–	–	–
COc1ccc2oc3cc(O)cc(OC)c3c(=O)c2c1OC	>100	Dose-dependent effect	–	–	–	–
COc1cccc(O)c1C(=O)O	>100	Dose-dependent effect	–	–	–	–
COc1cc(OC)c2c(=O)c3c(OC)c(O)ccc3oc2c1	>100	Dose-dependent effect	–	–	–	–
COc1cc(OC)c2c(=O)c3ccc(O)c(O)c3oc2c1	>100	Dose-dependent effect	–	–	–	–
COc1cc(O)c2c(=O)c3c(OC)c(O)ccc3oc2c1OC	87.4	Dose-dependent effect	–	–	–	–
COc1cccc(C(=O)c2ccc(O)cc2O)c1	>100	Dose-dependent effect	–	–	–	–
COc1c(OC)c(O)c2c(=O)c3c(O)cc(O)c(OC)c3oc2c1OC	22.7	Dose-dependent effect	Active	Dose-dependent effect	inactive	–
COc1cccc(O)c1C(=O)OCc1ccccc1	>100	Dose-dependent effect	–	–	–	–
COc1ccc2oc3cccc(O)c3c(=O)c2c1	42.7	Dose-dependent effect	–	–	–	–
COc1cc(OC)c(C(=O)c2ccccc2)cc1OC	>100	Dose-dependent effect	–	–	–	–
COc1c(OC)c(OC)c2c(=O)c3c(O)cc(O)c(OC)c3oc2c1O	>100	Dose-dependent effect	–	–	–	–
COc1cc(OC)c2c(=O)c3c(OC)c(OC)ccc3oc2c1OC	93.6	Dose-dependent effect	–	–	–	–
COc1c(O)ccc(C(=O)c2ccccc2)c1O	>100	Dose-dependent effect	–	–	–	–
COc1c(OC)c(O)c2c(=O)c3c(OC)cc(O)c(OC)c3oc2c1OC	17.4	Dose-dependent effect	Active	–	inactive	Dose-dependent effect
COc1ccc2oc3ccc(O)c(OC)c3c(=O)c2c1O	51.4	Dose-dependent effect	–	–	–	–
COc1cc(O)c2c(=O)c3c(OC)cc(OC)cc3oc2c1	>100	Dose-dependent effect	–	–	–	–
O=c1c2ccc(O)cc2oc2cccc(O)c12	>100	Dose-dependent effect	–	–	–	–
COc1cc(O)c2c(=O)c3c(OC)c4c(c(OC)c3oc2c1OC)OCO4	78.1	Dose-dependent effect	–	–	–	–
O=c1c2ccc(O)c(O)c2oc2cccc(O)c12	>100	Dose-dependent effect	–	–	–	–
COc1cc2oc3cccc(OC)c3c(=O)c2cc1OC	>100	Dose-dependent effect	–	–	–	–
COc1cc(O)c2c(=O)c3c(OC)c(OC)ccc3oc2c1OC	73.3	Dose-dependent effect	–	–	–	–
CC(=O)O[C@H]1C(=O)[C@@]2(C)[C@H]([C@H](OC(=O)c3ccccc3)[C@]3(O)C[C@H](OC(=O)[C@H](O)[C@@H](NC(=O)c4ccccc4)c4ccccc4)C(C)=C1C3(C)C)[C@]1(OC(C)=O)CO[C@@H]1C[C@@H]2O [PACLITAXEL]	>100	–	–	–	–	–
COc1c(O)cccc1C(=O)OCc1ccccc1	>100	Dose-dependent effect	–	–	–	–
